# Assay results published in patent US20240240224A1, “FLUORESCENT D-TYPE AMINO ACID METABOLISM MARKER-BASED METHOD FOR DETECTING ANTIBACTERIAL DRUG SENSITIVITY TEST” (priority 2020, published 2024).
# Key:
# [1] = tested on: S. aureus ST5; assay: Vitek 2 drug sensitivity test; format: cell-based, Staphylococcus aureus; for Sensibility: key: S: Drug sensitive; R: Drug resistance
# [2] = tested on: S. aureus ST59; assay: Vitek 2 drug sensitivity test; format: cell-based, Staphylococcus aureus; for Sensibility: key: S: Drug sensitive; R: Drug resistance
# [3] = tested on: S. aureus ST398; assay: Vitek 2 drug sensitivity test; format: cell-based, Staphylococcus aureus; for Sensibility: key: S: Drug sensitive; R: Drug resistance
# [4] = tested on: S. aureus ST5; assay: FDAA metabolic labeling susceptibility test (Cy5-DAA probe, flow cytometry); format: cell-based; settings: Staphylococcus aureus; S. aureus ST5; Cy5-DAA probe, 2 hours; read-out: MIC, FDAA
# Protocol: (§1) Take the colony to be tested that has been cultured overnight on the plate and fully mix it in normal saline to make a uniform bacterial solution. Dilute it into Cation-Adjusted Mueller Hinton Broth (CAMHB) culture medium to make a bacterial solution with OD600=0.05. • 2. Add 45 μl antibiotic solutions of different concentrations to 96-well plates (see Table 1 for antibiotic concentration gradient settings). • 3. Add 50 μl of the bacterial solution prepared in step 1 to the 96-well plate and mix well. • 4. Add 5 μl of 10 mM Cy5-DAA probe (final concentration 0.15 mM, see FIG. 1 for its structure) into each well, mix well, and cultivate in dark for 2 hours. • 5. Add 200 μl After PBS solution is diluted, the fluorescence intensity of each sample is detected by flow cytometry. The flow detection results are shown in FIG. 4-5, showing the curve of the change of antibiotic concentration gradient and fluorescence intensity. The MIC (minimum inhibitory concentration) can be obtained by referring to this curve.
# [5] = tested on: S. aureus ST59; assay: as above; format: cell-based; settings: Staphylococcus aureus; S. aureus ST59; Cy5-DAA probe, 2 hours; read-out: MIC, FDAA
# Protocol: as §1
# [6] = tested on: S. aureus ST398; assay: as above; format: cell-based; settings: Staphylococcus aureus; S. aureus ST398; Cy5-DAA probe, 2 hours; read-out: MIC, FDAA
# Protocol: as §1
# [7] = tested on: E. faecalis ATCC29212; assay: BMD susceptibility test; format: cell-based, Enterococcus faecalis; settings: unit assumed
# [8] = tested on: E. faecalis ATCC29212; assay: FaAST (FDAA metabolic labeling method); format: cell-based, Enterococcus faecalis; settings: unit assumed
# Protocol: as §1
# (§2) Bacteria with antibiotic resistance are shown in bold in the following table.
# [9] = tested on: E. faecium Ef26; assay: BMD susceptibility test; format: cell-based, Enterococcus faecium; settings: unit assumed
# [10] = tested on: E. faecalis ATCC29212; settings: cited from earlier work
# [11] = tested on: E. faecium Ef26; assay: FaAST (FDAA metabolic labeling method); format: cell-based, Enterococcus faecium; settings: unit assumed
# Protocol: as §1, §2
# [12] = tested on: alveolar lavage fluid sample 0226, K. pneumoniae; assay: BMD susceptibility test of patient alveolar lavage fluid; format: cell-based, Klebsiella pneumoniae; settings: unit assumed
# Text: (§3) The results of antimicrobial susceptibility test of alveolar lavage fluid of seven patients using FDAA and BMD methods are shown in the following table. The drug-resistant bacteria are shown in bold.
# [13] = tested on: alveolar lavage fluid sample 0203, K. pneumoniae; assay: as above; format: cell-based, Klebsiella pneumoniae; settings: unit assumed
# Text: as §3
# [14] = tested on: alveolar lavage fluid sample 0204, A. baumannii; assay: as above; format: cell-based, Acinetobacter baumannii; settings: unit assumed
# [15] = tested on: alveolar lavage fluid sample 0226, K. pneumoniae; assay: FaAST (FDAA) susceptibility test of patient alveolar lavage fluid; format: cell-based, Klebsiella pneumoniae; settings: unit assumed
# Protocol: (§4) With reference to the flow chart of the rapid detection method of antimicrobial susceptibility test based on FDAA metabolic markers shown in FIG. 3, FDAA is used for the detection of antimicrobial susceptibility test of alveolar lavage fluid. The specific experimental steps are as follows: • 1. Mix bronchoalveolar lavage fluid (BALF, 10 ml) of patients with hospital acquired pneumonia with cation regulated broth medium (CAMHB, 10 ml) of twice the concentration to prepare the bacterial fluid to be tested. • 2. Add 45 μl antibiotic solutions of different concentrations to the 96-well plate separately (see Table 1 for antibiotic concentration gradient settings). • 3. Add 50 μl of the bacterial solution prepared in step 1 to the 96-well plate and mix well. • 4. Add 5 μl of 10 mM Cy5-DAA probe (final concentration 0.15 mM, see FIG. 1 for its structure) into each well, mix well, and then cultivate in dark for 2 hours. • 5. Add 200 μl PBS solution for dilution, and then use flow cytometry to detect the fluorescence intensity of each sample.
# as §3
# [16] = tested on: alveolar lavage fluid sample 0203, K. pneumoniae; assay: as above; format: cell-based, Klebsiella pneumoniae; settings: unit assumed
# Protocol: as §4, §3
# [17] = tested on: A. baumannii Ab16; assay: FaAST (FDAA metabolic labeling); format: cell-based, Acinetobacter baumannii; settings: unit assumed
# Protocol: (§5) The specific experimental steps are as follows: • 1. Take the colony to be tested that has been cultured overnight on the plate and fully mix it in normal saline to make a uniform bacterial solution. Dilute it into CAMHB medium to make a bacterial solution with OD600=0.05. • 2. Add 45 μl antibiotic solutions to be tested of different concentrations to 96-well plates (see Table 3 for antibiotic concentration gradient settings). • 3. Add 50 μl of bacterial solution prepared in Step 1 to the 96-well plate and mix well. • 4.5 μl of 10 mM Cy5-DAA probe was added to each well (final concentration was 0.15 mM, and its structure was shown in FIG. 1). After mixing, the probe was incubated for 2 hours in the dark. • 5. After dilution with 200 μl PBS solution, the fluorescence intensity of each sample was detected by flow cytometry.
# [18] = tested on: alveolar lavage fluid sample 0130, A. baumannii; assay: FaAST (FDAA) susceptibility test of patient alveolar lavage fluid; format: cell-based, Acinetobacter baumannii; settings: unit assumed
# Protocol: as §4, §3
# [19] = tested on: alveolar lavage fluid sample 0206, A. baumannii; assay: as above; format: cell-based, Acinetobacter baumannii; settings: unit assumed
# Protocol: as §4, §3
# [20] = tested on: alveolar lavage fluid sample 0204, A. baumannii; assay: as above; format: cell-based, Acinetobacter baumannii; settings: unit assumed
# Protocol: as §4, §3
# [21] = tested on: alveolar lavage fluid sample 0219, A. baumannii; assay: as above; format: cell-based, Acinetobacter baumannii; settings: unit assumed
# Protocol: as §4, §3
# [22] = tested on: A. baumannii Ab19; assay: FaAST (FDAA metabolic labeling); format: cell-based, Acinetobacter baumannii; settings: unit assumed
# Protocol: as §5, with “cytometry. The flow detection results are shown in the attached FIG. 4-5, showing the curve of antibiotic concentration gradient and fluorescence intensity, and the MIC (minimum inhibitory concentration) is obtained by referring to this curve.” for “cytometry.”
# (§6) Antibiotic resistant strains are shown in bold in the table below.
# [23] = tested on: E. coli Ec11; assay: FaAST (FDAA metabolic labeling); format: cell-based, Escherichia coli; settings: unit assumed
# Protocol: as §5, with “cytometry. The flow detection results are shown in the attached FIG. 4-5, showing the curve of antibiotic concentration gradient and fluorescence intensity, and the MIC (minimum inhibitory concentration) is obtained by referring to this curve.” for “cytometry.”
# as §6
# [24] = tested on: Ec ATCC 25922; assay: FaAST (FDAA metabolic labeling); format: cell-based, Escherichia coli; settings: unit assumed
# Protocol: as §5, with “cytometry. The flow detection results are shown in the attached FIG. 4-5, showing the curve of antibiotic concentration gradient and fluorescence intensity, and the MIC (minimum inhibitory concentration) is obtained by referring to this curve.” for “cytometry.”
# as §6
# [25] = tested on: Ec ATCC 25922; assay: BMD susceptibility test; format: cell-based, Escherichia coli; settings: unit assumed
# [26] = tested on: E. coli Ec11; assay: BMD susceptibility test; format: cell-based, Escherichia coli; settings: unit assumed
# [27] = tested on: K. pneumoniae Kp9; assay: BMD susceptibility test; format: cell-based, Klebsiella pneumoniae; settings: unit assumed
# [28] = tested on: A. baumannii Ab16; assay: BMD susceptibility test; format: cell-based, Acinetobacter baumannii; settings: unit assumed
# [29] = tested on: K. pneumoniae Kp6; assay: BMD susceptibility test; format: cell-based, Klebsiella pneumoniae; settings: unit assumed
# [30] = tested on: E.coli 1113; assay: Vitek 2 drug sensitivity test; format: cell-based, Escherichia coli; for Sensibility: key: S: Drug sensitive; R: Drug resistance
# [31] = tested on: E. coli Ec13; assay: FaAST (FDAA metabolic labeling); format: cell-based, Escherichia coli; settings: unit assumed
# Protocol: as §5
# [32] = tested on: alveolar lavage fluid sample 0130, A. baumannii; assay: BMD susceptibility test of patient alveolar lavage fluid; format: cell-based, Acinetobacter baumannii; settings: unit assumed
# Text: as §3
# [33] = tested on: alveolar lavage fluid sample 0206, A. baumannii; assay: as above; format: cell-based, Acinetobacter baumannii; settings: unit assumed
# Text: as §3
# [34] = tested on: alveolar lavage fluid sample 0219, A. baumannii; assay: as above; format: cell-based, Acinetobacter baumannii; settings: unit assumed
# Text: as §3
# [35] = tested on: K. pneumoniae Kp9; assay: FaAST (FDAA metabolic labeling); format: cell-based, Klebsiella pneumoniae; settings: unit assumed
# Protocol: as §5
# [36] = tested on: K. pneumoniae Kp6; assay: FaAST (FDAA metabolic labeling); format: cell-based, Klebsiella pneumoniae; settings: unit assumed
# Protocol: as §5
# [37] = tested on: E.coli 1146; assay: Vitek 2 drug sensitivity test; format: cell-based, Escherichia coli; for Sensibility: key: S: Drug sensitive; R: Drug resistance
# [38] = tested on: E. coli Ec13; assay: BMD susceptibility test; format: cell-based, Escherichia coli; settings: unit assumed
# [39] = tested on: A. baumannii Ab19; assay: BMD susceptibility test; format: cell-based, Acinetobacter baumannii; settings: unit assumed
# [40] = tested on: bacteria contained in alveolar lavage fluid; assay: FDAA metabolic labeling susceptibility test of alveolar lavage fluid (Cy5-DAA probe); format: cell-based; settings: alveolar lavage fluid of patients with hospital acquired pneumonia, 2 hours
# Protocol: as §4
# [41] = tested on: Ec ATCC 25922; settings: cited from earlier work
# [42] = tested on: bacteria contained in alveolar lavage fluid; assay: Vitek 2 drug sensitivity test of alveolar lavage fluid; format: cell-based; for Sensibility: key: S: Drug sensitive; R: Drug resistance
# [43] = tested on: E.coli 1113; assay: FDAA metabolic labeling susceptibility test (Cy5-DAA probe, flow cytometry); format: cell-based, Escherichia coli; settings: Escherichia coli, 1113, 2 h, read-out: MIC, FDAA
# Protocol: as §5, with “cytometry. The flow detection results are shown in the attached FIG. 4-5, showing the curve of antibiotic concentration gradient and fluorescence intensity, and the MIC (minimum inhibitory concentration) is obtained by referring to this curve.” for “cytometry.”
# [44] = tested on: E.coli 1146; assay: as above; format: cell-based, Escherichia coli; settings: Escherichia coli, 1146, 2 h, read-out: MIC, FDAA
# Protocol: as §5, with “cytometry. The flow detection results are shown in the attached FIG. 4-5, showing the curve of antibiotic concentration gradient and fluorescence intensity, and the MIC (minimum inhibitory concentration) is obtained by referring to this curve.” for “cytometry.”
compound,measurement,setting,value
"Cc1onc(-c2ccccc2)c1C(=O)N[C@@H]1C(=O)N2[C@@H]1SC(C)(C)[C@@H]2C(=O)O [OX, oxacillin]",Sensibility,[1],R
same,MIC,[1]; Staphylococcus aureus,256 µg/mL
same,Sensibility,[2],R
same,MIC,[2]; Staphylococcus aureus,16 µg/mL
same,Sensibility,[3],S
same,MIC,[3]; Staphylococcus aureus,≤ 0.25 µg/mL
same,MIC,[4],≥ 1020 µg/mL
same,MIC,[5],32 µg/mL
same,MIC,[6],0.25 µg/mL
"CC1(C)S[C@@H]2[C@H](NC(=O)Cc3ccccc3)C(=O)N2[C@H]1C(=O)O [Penicillin G, penicillin G]",BMD (MIC),[7],2 µg/mL
same,FaAST (MIC),[8],4 µg/mL
same,BMD (MIC),[9],64 µg/mL
same,CLSI QC range,[10],1-4
same,FaAST (MIC),[11],32 µg/mL
"CN(C)c1cc(NC(=O)CNC(C)(C)C)c(O)c2c1C[C@H]1C[C@H]3[C@H](N(C)C)C(O)=C(C(N)=O)C(=O)[C@@]3(O)C(O)=C1C2=O [Tigecycline, tigecycline]",BMD (MIC),[12],1 µg/mL
same,BMD (MIC),[13],1 µg/mL
same,BMD (MIC),[14],0.5 µg/mL
same,FaAST (MIC),[15],0.5 µg/mL
same,FaAST (MIC),[16],0.125 µg/mL
same,FaAST (MIC),[17],≤ 0.25 µg/mL
same,FaAST (MIC),[18],2 µg/mL
same,FaAST (MIC),[19],8 µg/mL
same,FaAST (MIC),[20],0.5 µg/mL
same,FaAST (MIC),[21],64 µg/mL
same,FaAST (MIC),[22],0.5 µg/mL
same,FaAST (MIC),[23],≤ 0.25 µg/mL
same,FaAST (MIC),[24],≤ 0.25 µg/mL
same,BMD (MIC),[25],≤ 0.25 µg/mL
same,BMD (MIC),[26],≤ 0.25 µg/mL
same,BMD (MIC),[27],0.5 µg/mL
same,BMD (MIC),[28],≤ 0.25 µg/mL
same,BMD (MIC),[29],≤ 0.25 µg/mL
same,"MIC, Vitek 2",[30],< 1 µg/mL
same,Sensibility,[30],S
same,FaAST (MIC),[31],≤ 0.25 µg/mL
same,BMD (MIC),[32],2 µg/mL
same,BMD (MIC),[33],1 µg/mL
same,BMD (MIC),[34],1 µg/mL
same,FaAST (MIC),[35],0.25 µg/mL
same,FaAST (MIC),[36],≤ 0.25 µg/mL
same,Sensibility,[37],S
same,MIC,[37]; Escherichia coli,≤ 0.25 µg/mL
same,BMD (MIC),[38],≤ 0.25 µg/mL
same,BMD (MIC),[39],≤ 0.25 µg/mL
same,"MIC, FDAA",[40],4 µg/mL
same,CLSI QC range,[41],0.03-0.25
same,MIC,[42],2 µg/mL
same,Sensibility,[42],S
same,MIC,[43],1 µg/mL
same,MIC,[44],0.25 µg/mL
Polymyxin B,FaAST (MIC),[23],2 µg/mL
same,FaAST (MIC),[24],2 µg/mL
same,BMD (MIC),[25],2 µg/mL
same,BMD (MIC),[26],2 µg/mL
same,BMD (MIC),[27],16 µg/mL
same,BMD (MIC),[29],0.5 µg/mL
same,FaAST (MIC),[31],8 µg/mL
same,FaAST (MIC),[35],32 µg/mL
same,FaAST (MIC),[36],1 µg/mL
same,BMD (MIC),[38],8 µg/mL
same,CLSI QC range,[41],0.25-2
